Data published in PubChem BioAssay (NCI).
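Assay format: 96-well plates, 48-hour exposure. TGI denotes the concentration required for complete inhibition of growth.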

Legend:
Assay in all cases: inhibition of tumour cell growth, NCI panel, 48 h
[1] = tested on: UO-31 renal
[2] = tested on: MDA-MB-231 breast
[3] = tested on: NCI-H23 lung
[4] = tested on: ACHN renal
[5] = tested on: DU-145 prostate
[6] = tested on: RPMI-8226 leukemia
[7] = tested on: SNB-75 CNS
[8] = tested on: MOLT-4 leukemia
[9] = tested on: OVCAR-4 ovarian
[10] = tested on: UACC-257 melanoma
[11] = tested on: EKVX NSCLC
[12] = tested on: MDA-MB-435
[13] = tested on: IGROV1 ovarian
[14] = tested on: 786-0 renal
[15] = tested on: HCT-15 colon
[16] = tested on: A498 renal
[17] = tested on: SF-539 CNS
[18] = tested on: NCI-H460 lung
[19] = tested on: SNB-19 CNS
[20] = tested on: MDA-N
[21] = tested on: BT-549 breast
[22] = tested on: SK-MEL-28 melanoma
[23] = tested on: COLO 205 colon
[24] = tested on: NCI-H522 lung
[25] = tested on: HCT-116 colon
[26] = tested on: HOP-92 NSCLC
[27] = tested on: MALME-3M melanoma
[28] = tested on: SN12C renal
[29] = tested on: OVCAR-8 ovarian
[30] = tested on: CAKI-1 renal
[31] = tested on: SW-620 colon
[32] = tested on: NCI-H226 lung
[33] = tested on: OVCAR-5 ovarian
[34] = tested on: SF-295 CNS
[35] = tested on: KM12 colon
[36] = tested on: M14 melanoma
[37] = tested on: K-562 leukemia
[38] = tested on: LOX IMVI melanoma
[39] = tested on: OVCAR-3 ovarian
[40] = tested on: HT29 colon
[41] = tested on: U251 CNS
[42] = tested on: A549 NSCLC
[43] = tested on: SK-OV-3 ovarian
[44] = tested on: HOP-62 NSCLC
[45] = tested on: T-47D breast
[46] = tested on: SF-268 CNS
[47] = tested on: TK-10 renal
[48] = tested on: SK-MEL-5 melanoma
[49] = tested on: RXF 393 renal
[50] = tested on: NCI/ADR-RES ovarian
[51] = tested on: UACC-62 melanoma
[52] = tested on: SR leukemia
[53] = tested on: HCC-2998 colon
[54] = tested on: MCF7 breast
[55] = tested on: HL-60(TB) leukemia
[56] = tested on: PC-3 prostate
[57] = tested on: HS 578T breast
[58] = tested on: CCRF-CEM leukemia
[59] = tested on: SK-MEL-2 melanoma

Measured: TGI

CC(=O)[C@@]1(c2ccccc2)CC2(CCN(C)CC2)O[C@H]1C
not listed: [51] | [52] | [53] | [54] | [55] | [56] | [57] | [58] | [59]
> 100 µM: all other assays above

Cc1cc(C)n(-c2nc(C)c(CCO)c(=O)[nH]2)n1
not listed: [16] | [30] | [59]
> 100 µM: all other assays above

CNC(=O)CNC(=O)N(C[C@@H]1CCCN1C(=O)[C@H](CC(C)C)NC(=O)OC(C)(C)C)C(C)C
not listed: [10] | [17] | [26] | [47]
> 100 µM: all other assays above
